In PubChem BioAssay (NCI) one finds TGI data, which are given here for 26 compounds.

Values joined by “and” are separate entries in the source; they are usually repeats but may differ in a detail not shown here. Equal values may be shown once.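 These data come from cells grown in 96-well plates and exposed to compound for 48 hours at five concentrations. TGI marks complete inhibition of growth.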 Where a SMILES comes first, the peptide text is derived from it. The star is where a group is joined. Boc = CC(C)(C)OC(=O)*

Test systems include OVCAR-4 ovarian; SF-268 CNS; ACHN renal; UACC-62 melanoma; CAKI-1 renal; HT29 colon; DU-145 prostate.
Experiment in all cases: NCI-60 cell line screen, 48 h

For the compound `CCCCn1c2c(n(CCCC)c1=S)-c1c(n(CCCC)c(=S)n1CCCC)SSc1c(n(CCCC)c(=S)n1CCCC)-c1c(n(CCCC)c(=S)n1CCCC)SSc1c(n(CCCC)c(=S)n1CCCC)-c1c(n(CCCC)c(=S)n1CCCC)SS2`, the TGI in the test on OVCAR-4 ovarian was greater than 19.7 µM; in the test on SF-268 CNS, greater than 30.2 µM; in the test on ACHN renal, 11.1 µM; with UACC-62 melanoma it was 20.3 µM; with CAKI-1 renal, greater than 40.2 µM; with HT29 colon, greater than 46.6 µM. This compound returned a TGI with DU-145 prostate greater than 50 µM.
Turning to `COC(=O)C(Cc1c[nH]c2ccccc12)NC(=O)C(Cc1c[nH]c2ccccc12)NC(=O)C(Cc1c[nH]c2ccccc12)NC(=O)C(Cc1c[nH]c2ccccc12)NC(=O)C(Cc1c[nH]c2ccccc12)NC(=O)C(Cc1c[nH]c2ccccc12)NC(=O)C(Cc1c[nH]c2ccccc12)NC(=O)C(Cc1c[nH]c2ccccc12)NC(=O)OC(C)(C)C` (configuration not stated) (Boc-WWWWWWWW-OMe; configuration not given here), the TGI with OVCAR-4 ovarian, in the test on SF-268 CNS, in the test on ACHN renal, in the test on UACC-62 melanoma, in the test on CAKI-1 renal and in the test on HT29 colon was greater than 100 µM in each case. This compound also gave a TGI with DU-145 prostate greater than 100 µM.
In the case of `CCOC(=O)NC(Nc1ccc(C(=O)OCC)cc1)(C(F)(F)F)C(F)(F)F`, the TGI in the test with OVCAR-4 ovarian, in the test on SF-268 CNS, in the test with ACHN renal, with UACC-62 melanoma, in the test on HT29 colon and with DU-145 prostate was greater than 100 µM throughout.
Consider `O=C1c2ccccc2C(=O)N1CC(O)COc1cccc2ccccc12` (configuration not stated), for which the TGI in the test on SF-268 CNS, in the test on ACHN renal, in the test on UACC-62 melanoma, in the test with CAKI-1 renal, with HT29 colon and in the test with DU-145 prostate was greater than 100 µM throughout.
With `O=C(NNC(=S)NC1CCCCC1)c1csc(NC(=S)NC2CCCCC2)n1`, the TGI in the test on SF-268 CNS was 26.3 µM; with ACHN renal, 15.3 µM; in the test on UACC-62 melanoma, 22.6 µM; in the test with CAKI-1 renal, 24.2 µM; with HT29 colon, greater than 100 µM; in the test on DU-145 prostate it was greater than 100 µM.
Consider `Cc1ccc(S(=O)(=O)N2CCCSCC2)cc1`, for which the TGI in the test on OVCAR-4 ovarian, in the test on SF-268 CNS, with ACHN renal, with HT29 colon and in the test with DU-145 prostate was greater than 100 µM in each case.
Turning to `CC1=C(C)Cc2c(O)ccc(O)c2C1`, the TGI in the test with SF-268 CNS was found to be 31.8 µM; in the test with ACHN renal, 31.2 µM; in the test on UACC-62 melanoma it was 30.1 µM; with CAKI-1 renal, 34.1 µM; in the test on HT29 colon, 30.5 µM; in the test on DU-145 prostate, 39.7 µM.
Take `C=C1C2C[C@@H]3O[C@H]4C[C@H]5O[C@@]6(C[C@@H]7O[C@]8(C[C@H](C)[C@@H]9O[C@@H]%10CC(CO)O[C@@H]%10C[C@@H]9O8)C[C@H](C)[C@@H]7O6)C[C@H]5O[C@H]4[C@H](C)[C@H]3OC(=O)C[C@H]3CC[C@@H]4OC5[C@H]6O[C@]7(CC[C@H]8CC(=C)[C@H](CC[C@@H](C[C@H]1C)O2)O8)CC6O[C@@H]5[C@@H](O7)[C@H]4O3` (some centres not stated): the TGI was greater than 1 µM in the test with OVCAR-4 ovarian; greater than 0.874 µM with SF-268 CNS; greater than 1 µM in the test with ACHN renal; greater than 1 µM with UACC-62 melanoma; greater than 1 µM in the test on CAKI-1 renal.
As for `COC(=O)C1OC(O[C@H]2CC[C@]3(C)[C@H]4CC=C5[C@@H]6CC(C)(C)CC[C@]6(C(=O)OC6OCC(O)C(O)C6OC6OC(C)C(OC7OCC(O)C(O)C7O)C(O)C6O)CC[C@@]5(C)[C@]4(C)CC[C@H]3C2(C)C)C(O)C(O)C1O` (some centres not stated), the TGI in the test with OVCAR-4 ovarian is 34.3 µM and 29.8 µM; in the test on SF-268 CNS it was 31.2 µM and 34.7 µM; in the test on UACC-62 melanoma, 32 µM and 32.5 µM; in the test on CAKI-1 renal, 25.9 µM and 34.9 µM; with HT29 colon, 30.8 µM and 29.5 µM; in the test on DU-145 prostate it was 33.7 µM and 47.8 µM.
Take `COc1cc(CNNC(N)=S)cc(OC)c1OC`: the TGI with SF-268 CNS, in the test on ACHN renal, in the test on CAKI-1 renal, with HT29 colon and in the test on DU-145 prostate was greater than 100 µM throughout.
Consider `Cc1nc2c(=O)n(C)ncc2[nH]1`, for which the TGI in the test on SF-268 CNS, in the test with ACHN renal, in the test with UACC-62 melanoma, in the test with CAKI-1 renal, in the test with HT29 colon and with DU-145 prostate was greater than 100 µM throughout.
Take `O=C(O)CN1C(=O)C(Cc2ccc(O)cc2)N=C(c2cccc(O)c2)c2ccccc21` (configuration not stated): the TGI with OVCAR-4 ovarian, with SF-268 CNS, in the test with ACHN renal, in the test on UACC-62 melanoma, with HT29 colon and in the test on DU-145 prostate was greater than 100 µM each time.
Regarding `C=CC(Cl)(CBr)CCC(Br)C(C)(C)Cl` (configuration not stated), the TGI with OVCAR-4 ovarian was determined as 34.1 µM; with SF-268 CNS it was 48.4 µM; in the test with ACHN renal, 38.2 µM; in the test on UACC-62 melanoma, 30.5 µM; in the test on HT29 colon it was 28.9 µM; in the test on DU-145 prostate, 42.8 µM.
For the compound `NC(=S)N/N=C\c1nccc2ccccc12`, the TGI in the test on OVCAR-4 ovarian is 1.2 µM; in the test on SF-268 CNS, 1.47 µM; with ACHN renal, 0.317 µM; with UACC-62 melanoma, 0.538 µM; with HT29 colon, 30.9 µM; in the test on DU-145 prostate it was greater than 100 µM.
In the case of `CC1(C)CCC[C@]2(C)[C@H]3[C@H](C#N)c4cc(O)c(O)cc4O[C@@]3(C)CC[C@@H]12`, the TGI with OVCAR-4 ovarian, in the test on SF-268 CNS, in the test on ACHN renal, in the test with CAKI-1 renal and with DU-145 prostate was greater than 10 µM throughout.
Take `OC(c1cc(C23CC4CC(CC(C4)C2)C3)nc2c(Cl)cc(Cl)cc12)C1CCCCN1` (configuration not stated): the TGI with SF-268 CNS is 3.25 µM; with ACHN renal, 2.94 µM; in the test on UACC-62 melanoma it was 3.16 µM; in the test with CAKI-1 renal it was 3.24 µM; in the test on HT29 colon, 3.04 µM; in the test with DU-145 prostate, 3.29 µM.
Turning to `Cc1cn(CC2=NCC(C)N2)c(=O)[nH]c1=O` (configuration not stated), the TGI in the test on SF-268 CNS, in the test with ACHN renal, with UACC-62 melanoma, with HT29 colon and in the test with DU-145 prostate was greater than 100 µM each time.
`COc1cc(/C=c2\sc3n(c2=O)C(c2ccc(Cl)cc2)C2=C(CCCC2C)N=3)cc(OC)c1OC` (configuration not stated): the TGI with SF-268 CNS, with ACHN renal, in the test on UACC-62 melanoma, in the test on CAKI-1 renal, in the test with HT29 colon and with DU-145 prostate was greater than 100 µM in each case.
With `Oc1ccc(-c2nc3ccc(Cl)cc3s2)cc1`, the TGI was 33.8 µM in the test on SF-268 CNS; greater than 100 µM in the test with ACHN renal; 31.2 µM with UACC-62 melanoma; 36.5 µM with CAKI-1 renal; 34.6 µM with HT29 colon; 31.1 µM with DU-145 prostate.
`O=C(Nc1nc(C23CC4CC(CC(C4)C2)C3)cs1)c1cc2ccccc2oc1=O`: the TGI in the test on OVCAR-4 ovarian, in the test on SF-268 CNS, in the test with ACHN renal, with CAKI-1 renal, in the test with HT29 colon and in the test on DU-145 prostate was greater than 100 µM each time.
As to `CCOC(=O)c1ccc(NCC#CCN2CCCCC2)cc1`, the TGI in the test on OVCAR-4 ovarian, with SF-268 CNS, in the test on ACHN renal, in the test on UACC-62 melanoma, with HT29 colon and in the test with DU-145 prostate was greater than 100 µM in each case.
For the compound `Oc1ccc2c(c1)-c1c(c3ccccc3n1CCN1CCOCC1)CC2`, the TGI in the test with SF-268 CNS was greater than 100 µM; in the test on ACHN renal, 53.3 µM; with UACC-62 melanoma, 81 µM; in the test on CAKI-1 renal, greater than 100 µM; with HT29 colon it was greater than 100 µM; in the test on DU-145 prostate it was greater than 100 µM.
`C=C1CCC([N+](=O)[O-])[C@](C)(N=O)CC[C@@H]2C1CC2(C)C` (some centres not stated): the TGI was 84.6 µM with OVCAR-4 ovarian; greater than 100 µM in the test with SF-268 CNS; greater than 100 µM in the test with ACHN renal; greater than 100 µM with CAKI-1 renal; 45.4 µM with HT29 colon; greater than 100 µM in the test with DU-145 prostate.
Turning to `CC(=O)O[C@H]1[C@H](OC(=O)CC(C)(O)CC(=O)O)C[C@]2(C)C3=C(CCC2C1(C)C)[C@]1(C)CC[C@H]([C@H]2CC[C@H](C(C)(C)O)OC2O)[C@@]1(C)[C@@H](O)C3` (some centres not stated), the TGI in the test with OVCAR-4 ovarian is 37.8 µM; in the test on ACHN renal, 31.2 µM; in the test with UACC-62 melanoma, 37 µM; in the test with CAKI-1 renal, 36.7 µM; in the test with HT29 colon, 30.2 µM; in the test on DU-145 prostate, 64.8 µM.
In the case of `CC(=O)C1CC[C@@H]2[C@H](CC[C@]3(C)[C@@H](O)CC[C@@H]23)[C@H]1C(=O)O` (some centres not stated), the TGI with OVCAR-4 ovarian, with SF-268 CNS, in the test with UACC-62 melanoma, in the test on CAKI-1 renal and in the test with HT29 colon was greater than 100 µM throughout.
With `CC(=O)c1cc2ccccc2oc1=O`, the TGI in the test on OVCAR-4 ovarian, in the test with SF-268 CNS, in the test with ACHN renal, with CAKI-1 renal, in the test on HT29 colon and in the test on DU-145 prostate was greater than 100 µM in each case.
